{"source": "patent US11230548B2", "about": "“Prodrugs of fumarates and their use in treating various diseases” (Alkermes Pharma Ireland Limited, priority 2013, dated 2022)", "test": "Aqueous chemical stability in phosphate buffer (HPLC, first-order decay)", "format": "physicochemical", "settings": "half-life of the compound in buffer phosphate (100 mM), pH 8, 37° C., half-lives >360 min estimated from initial slope at low conversion (<10%)", "protocol": "Stock solutions of the compounds in acetonitrile or acetonitrile/methanol were prepared at 20 mg/mL. and 20 μL, spiked into 3 mL of buffer phosphate (100 mM) and incubated at 37° C. Aliquots (50 μL) were sampled at different time points and diluted 20 fold with ammonium formate (pH 3.5)/acetonitrile. The diluted samples were analyzed by HPLC. The peak areas corresponding to the compounds were plotted against time and the data were fitted to a first-order mono-exponential decay where the rate constant and the half-life were determined (Table 2).", "note": "Counter-ions that a name gives are not always drawn."}
{"smiles": "COC(=O)/C=C/C(=O)OC(C)CN(C)C", "note": "(stereo not drawn) [Compound 6, 1-(dimethylamino)propan-2-yl methyl fumarate hydrochloride]", "values": [{"measurement": "pH 8 (t½, min)", "result": 2.0, "unit": "min"}]}
{"smiles": "COC(=O)/C=C/C(=O)OCCN1CCSCC1", "note": "[Compound 7, Methyl (2-thiomorpholinoethyl) fumarate hydrochloride]", "values": [{"measurement": "pH 8 (t½, min)", "result": 26.0, "unit": "min"}]}
{"smiles": "COC(=O)/C=C/C(=O)OCCNc1ccccc1", "note": "[Compound 8, Methyl (2-(phenylamino)ethyl) fumarate hydrochloride]", "values": [{"measurement": "pH 8 (t½, min)", "result": 36.0, "unit": "min"}]}
{"smiles": "COC(=O)/C=C/C(=O)OCC(C)(C)N(C)C", "note": "[Compound 9, 2-(dimethylamino)-2-methylpropyl methyl fumarate hydrochloride]", "values": [{"measurement": "pH 8 (t½, min)", "result": 7.0, "unit": "min"}]}
{"smiles": "COC(=O)/C=C/C(=O)OCCS(C)(=O)=O", "note": "[Compound 10, Methyl (2-(methyl sulfonyl)ethyl) fumarate]", "values": [{"measurement": "pH 8 (t½, min)", "result": 67.0, "unit": "min"}]}
{"smiles": "COC(=O)/C=C/C(=O)OCCN1CCS(=O)(=O)CC1", "note": "[Compound 11, 2-(1,1-dioxidothiomorpholino)ethyl methyl fumarate hydrochloride]", "values": [{"measurement": "pH 8 (t½, min)", "result": ">240", "unit": "min"}]}
{"smiles": "COC(=O)/C=C/C(=O)OCCN(C)c1ccccc1", "note": "[Compound 12, Methyl (2-(methyl(phenyl)amino)ethyl) fumarate hydrochloride]", "values": [{"measurement": "pH 8 (t½, min)", "result": 396, "unit": "min"}]}
{"smiles": "COC(=O)/C=C/C(=O)OCCN1C(=O)CCC1=O", "note": "[Compound 14, 2-(2,5-dioxopyrrolidin-1-yl)ethyl methyl fumarate]", "values": [{"measurement": "pH 8 (t½, min)", "result": 144, "unit": "min"}]}
{"smiles": "COC(=O)/C=C/C(=O)OCCN1CCCCC1", "note": "[Compound 15, Methyl (2-(piperidin-1-yl)ethyl) fumarate hydrochloride]", "values": [{"measurement": "pH 8 (t½, min)", "result": 3.0, "unit": "min"}]}
{"smiles": "COC(=O)/C=C/C(=O)OCCN1CCOCC1", "note": "[Compound 16, Methyl (2-morpholinoethyl) fumarate hydrochloride]", "values": [{"measurement": "pH 8 (t½, min)", "result": 20.0, "unit": "min"}]}
{"smiles": "COC(=O)/C=C/C(=O)OCCN1CCC2(CC1)OCCO2", "note": "[Compound 17, 2-(1,4-dioxa-8-azaspiro[4.5]decan-8-yl)ethyl methyl fumarate hydrochloride]", "values": [{"measurement": "pH 8 (t½, min)", "result": 11.0, "unit": "min"}]}
{"smiles": "COC(=O)/C=C/C(=O)OCCN1CCCC1", "note": "[Compound 18, Methyl (2-(pyrrolidin-1-yl)ethyl) fumarate hydrochloride]", "values": [{"measurement": "pH 8 (t½, min)", "result": 5.0, "unit": "min"}]}
{"smiles": "COC(=O)/C=C/C(=O)OCCN(C)C", "note": "[Compound 19, 2-(dimethylamino)ethyl methyl fumarate hydrochloride]", "values": [{"measurement": "pH 8 (t½, min)", "result": 6.0, "unit": "min"}]}
{"smiles": "CCN(CC)CCOC(=O)/C=C/C(=O)OC", "note": "[Compound 20, 2-(diethylamino)ethyl methyl fumarate hydrochloride]", "values": [{"measurement": "pH 8 (t½, min)", "result": 5.0, "unit": "min"}]}
{"smiles": "CCN(CC)C(=O)COC(=O)/C=C/C(=O)OC", "note": "[Reference Compound A, 2-(diethylamino)-2-oxoethyl methyl fumarate, reference compound]", "values": [{"measurement": "pH 8 (t½, min)", "result": 120, "unit": "min"}]}
